What all share (assay): In vitro assay of antibacterial activity (agar dilution MIC)
Holding throughout (assay type): cell-based
(In general: Agar dilution tests growth on a series of plates holding different concentrations.)

The subject of assay [1] is Streptococcus pneumoniae ATCC 6303. The note with it: organism code GG, BHI agar, 35-37° C., 20 to 24 hours. As for the experimental part:
(§1) Representative compounds of the present invention were assayed in vitro for antibacterial activity as follows: Twelve petri dishes containing successive aqueous dilutions of the test compound mixed with 10 mL of sterilized Brain Heart Infusion (BHI) agar (Difco 0418-01-5) were prepared. Each plate was inoculated with 1:100 (or 1:10 for slow-growing strains, such as Micrococcus and Streptococcus) dilutions of up to 32 different microorganisms, using a Steers replicator block. The inoculated plates were incubated at 35-37° C. for 20 to 24 hours. In addition, a control plate, using BHI agar containing no test compound, was prepared and incubated at the beginning and end of each test.
(§2) An additional plate containing a compound having known susceptibility patterns for the organisms being tested and belonging to the same antibiotic class as the test compound was also prepared and incubated as a further control, as well as to provide test-to-test comparability. […] After incubation, each plate was visually inspected. The minimum inhibitory concentration (MIC) was defined as the lowest concentration of drug yielding no growth, a slight haze, or sparsely isolated colonies on the inoculum spot as compared to the growth control.

The subject of assay [2] is Staphylococcus aureus ATCC 6538P. The note with it: organism code AA, BHI agar, 35-37° C., 20 to 24 hours. As for the experimental part:
as §1, §2

Assay [3] concerns Haemophilus influenzae DILL AMP R. The note with it: organism code CC, BHI agar, 35-37° C., 20 to 24 hours. As for the experimental part: as §1, §2
Assay [4] concerns Streptococcus pyogenes EES61. Conditions: organism code DD, BHI agar, 35-37° C., 20 to 24 hours. As for the experimental part: as §1, §2
For assay [5], the system named is Staphylococcus aureus 1775. Conditions: organism code BB, BHI agar, 35-37° C., 20 to 24 hours. Here is the method: as §1, §2
Assay [6] relates to Streptococcus pyogenes PIU 2548. Conditions: organism code FF, BHI agar, 35-37° C., 20 to 24 hours. Here is the method: as §1, §2
Assay [7] concerns Streptococcus pneumoniae 5649. Conditions: organism code JJ, BHI agar, 35-37° C., 20 to 24 hours. As for the experimental part: as §1, §2
Assay [8] concerns Streptococcus pneumoniae 5737. The note with it: organism code HH, BHI agar, 35-37° C., 20 to 24 hours. Here is the method:
as §1, §2

Assay [9] has as its system Streptococcus pyogenes 930. Conditions: organism code EE, BHI agar, 35-37° C., 20 to 24 hours. Here is the method:
as §1, §2

≈ marks a conversion by molar mass, not a printed value.

The record followed here is US20020132782A1, “9-amino erythromycin derivatives with antibacterial activity” (priority 2001, published 2002).

Regarding `CC[C@H]1OC(=O)[C@H](C)[C@@H](O[C@H]2C[C@@](C)(OC)[C@@H](O)[C@H](C)O2)[C@H](C)[C@@H](O[C@@H]2O[C@H](C)C[C@H](N(C)C)[C@H]2O)[C@](C)(O)C[C@@H](C)C(=O)[C@H](C)[C@@H](O)[C@]1(C)O` [Ery. A, Erythromycin A, reference compound], the MIC is 0.06 µg/mL (≈ 0.0818 µM) in assay [1]; 0.2 µg/mL (≈ 0.273 µM) in assay [2]; 4 µg/mL (≈ 5.45 µM) in assay [3]; 0.06 µg/mL (≈ 0.0818 µM) in assay [4]; greater than 100 µg/mL in assay [5]; 32 µg/mL (≈ 43.6 µM) in [6]. The compound further yielded an MIC in assay [7] of 16 µg/mL (≈ 21.8 µM).

On to `CCC1OC(=O)C(C)C(=O)C(C)C(OC2OC(C)CC(N(C)C)C2O)C(C)(OCC=Cc2cnc3ccccc3c2)CC(C)C(N)C(C)C(O)C1(C)O` (stereo not drawn) [Example 7, Compound of Formula (II): R^1 is (Quinolin-3-yl)CH═CHCH2; R^2 is Hydrogen; R^3 is Hydrogen; R^4 is Hydrogen; R^5 is Hydrogen; R^p is Hydrogen], for which the MIC in assay [1] was 0.5 µg/mL; in assay [2], 0.78 µg/mL; in [3], 16 µg/mL; in assay [4], 0.25 µg/mL; in assay [5], greater than 100 µg/mL; in assay [8], greater than 64 µg/mL. For the same compound, the MIC in [6] was 2 µg/mL; in assay [7], 1 µg/mL.

Regarding `CCC1OC(=O)C(C)C(=O)C(C)C(OC2OC(C)CC(N(C)C)C2O)C(C)(OCC=Cc2cnc3ccccc3c2)CC(C)C2NC(=O)OC(C2C)C1(C)O` (stereo not drawn) [Example 8, Compound of Formula (II): R^1 is (Quinolin-3-yl)CH═CHCH2; R^2 is Hydrogen; R^3 and R^4 together are —C(O)—; R^5 is Hydrogen; R^p is Hydrogen], the MIC in assay [1] is 0.03 µg/mL; in assay [2], 0.39 µg/mL; in assay [3] it was 16 µg/mL; in [9], greater than 128 µg/mL; in assay [4] it was 0.03 µg/mL; in assay [5], greater than 100 µg/mL. In addition, the MIC in [8] was determined as 128 µg/mL; in [6], 1 µg/mL; in [7] it was 2 µg/mL.

Regarding `CCC1OC(=O)C(C)C(=O)C(C)C(OC2OC(C)CC(N(C)C)C2O)C(C)(OCC=Cc2cnc3ccccc3c2)CC(C)C(N)C(C)C2OC(=O)OC12C` (stereo not drawn) [Example 9, Compound of Formula (II): R^1 is (Quinolin-3-yl)CH═CHCH2; R^2 is Hydrogen; R^3 is Hydrogen; R^4 and R^5 are —C(O)—; R^p is Hydrogen], the MIC in assay [1] was 2 µg/mL; in [2], 0.2 µg/mL; in [3], 32 µg/mL; in assay [9] it was greater than 128 µg/mL; in [4], 1 µg/mL; in [5], greater than 100 µg/mL. For the same compound, the values for the MIC in [8], in assay [6] and in assay [7] were greater than 128 µg/mL, greater than 128 µg/mL and 32 µg/mL, respectively.
